US20030152647A1, “Safe botanical drug for treating malignant pleural effusion and cancer and increasing immune function” (priority 2002, published 2003)

Tested on: peritoneal macrophage
Assay: Phagocytosis of peritoneal macrophage in mice
Format: in vivo
Settings: drugs subcutaneously daily for 7 days
Experimental: Added 0.02 ml of 5% washed chick red blood cell suspension to 0.5 ml of the peritoneal exudate, shaken gently to mix and incubated at 37° C. for 5 minutes. Dipped two coverslips, closed to each other, in the above mixture and incubate for 30 minutes for the migration of the macrophages along the coverslips then fixed and stained with Sharma stain. Examined microscopically for: Phagocytic rate—number of macrophages with phagocytized chick red blood cells per 100 macrophages counted.
Method of animal model was regular. The drugs were injected subcutaneously daily for 7 days.

SMILES: O=P1(N(CCCl)CCCl)NCCCO1 (stereo not shown) [CY, Cyclophosphamide]
- Phagocytic rate (x + SD, %): 7.52 ± 0.46%
